The values that follow come from patent publication US7456296B2, “Method for preparation of crystalline perindopril erbumine” (Lupin Ltd, priority 2003, dated 2008).

The structures appear in SMILES notation.

Data set [1] in a line: Compressibility Index (Flowability) by standard methods. The format is physicochemical. The following applies: crystalline powder. The method, then: (§1) Compressability Index, or in other words the Flowability of the two materials were determined by standard methods practiced in the art. The Particle Size Distribution was determined using a Mastersizer 2000, Version 2 instrument with cyclohexane as the dispersant.

Data set [2] can be described thus: Particle Size Distribution, Mastersizer 2000 with cyclohexane as the dispersant. It is filed as physicochemical. On the procedure:
as §1

The conditions of data set [3]: final printed label of ACEON Tablets, cited from earlier work.

Consider `CCC[C@H](N[C@@H](C)C(=O)N1[C@H](C(=O)O)C[C@@H]2CCCC[C@@H]21)C(=O)OCC` [Perindopril erbumine crystallized as per the method of U.S. ], for which, in data set [1], the “Compressibility Index” value came out at 20.00. Besides, in data set [2], the “Particle Size Distribution (10%)” value is 16.39μ (10%);, the “Particle Size Distribution (50%)” value is reported as 70.18μ (50%); and the “Particle Size Distribution (90%)” value is 188.11μ (90%).

`CCC[C@H](N[C@@H](C)C(=O)N1[C@H](C(=O)O)C[C@@H]2CCCC[C@@H]21)C(=O)OCC` [Perindopril erbumine crystallized as per the method of the p]: the “Compressibility Index” value in data set [1] is 23.8. For the same compound, in data set [2], the “Particle Size Distribution (10%)” value was 9.06μ (10%);, the “Particle Size Distribution (50%)” value is reported as 36.37μ (50%); and the “Particle Size Distribution (90%)” value is 119.78μ (90%).

For the compound `CCC[C@H](N[C@@H](C)C(=O)N1[C@H](C(=O)O)C[C@@H]2CCCC[C@@H]21)C(=O)OCC` [perindopril erbumine], in data set [3] (alcohol), the solubility in alcohol entry is “freely soluble”. For the same compound, in data set [3] (chloroform), the solubility in chloroform entry is on record as “freely soluble”. For the same compound, the solubility in water in data set [3] (water) is given as 60 % w/w.
